According to the C3SDB collision cross section collection:
Where “and” joins values, the source holds several entries; their conditions need not be identical. Equal entries are not always repeated. Structures can show the parent of a compound that is named as a salt.

Conditions: [M+H-H2O]+; instrument: TW; calibrated with polyalanine and drug standards

Structure (SMILES) | collision cross section (N2) [Å²]
COc1cc([C@@H]2c3cc4c(c(O)c3C[C@H]3COC(=O)[C@@H]32)OCO4)cc(OC)c1OC [beta-PELTATIN] | 189

Same assay, conditions: [M+H]+; instrument: TW; calibrated with polyalanine and drug standards

Structure (SMILES) | collision cross section (N2)
O=c1c(O)c(-c2ccc(O)c(O)c2)oc2cc(O)cc(O)c12 [QUERCETIN] | 163.4 Å²
CCCc1cc(OC)c2c(c1)OCO2 [DIHYDROMYRISTICIN] | 128.7 Å²
CC1(C)O[C@@H]2C[C@H]3[C@@H]4CCC5=CC(=O)CC[C@]5(C)[C@@]4(F)[C@@H](O)C[C@]3(C)[C@]2(C(=O)CCl)O1 [HALCINONIDE] | 200.9 Å²
C[C@@](Cc1ccc(O)c(O)c1)(NN)C(=O)O [CARBIDOPA] | 142.4 Å²
C/C=C/c1ccc2c(c1)OCO2 [ISOSAFROLE] | 138.4 Å²
COc1cc(-c2coc3cc(OCc4ccccc4)c(OC)c(O)c3c2=O)cc(O)c1OC [IRIGENIN, 7-BENZYL ETHER] | 198.6 Å² and 212.4 Å²
CC(C)=CC1C(C(=O)OCc2cccc(Oc3ccccc3)c2)C1(C)C (stereo unspecified) [PHENOTHRIN] | 187.5 Å²
c1cncc(C2=NCCC2)c1 [MYOSMINE] | 128.2 Å²
OC[C@@H]1CCCN2CCCC[C@H]12 [LUPININE] | 135.3 Å²
CO[C@@H]1[C@@H](OC2OC(C)C(OC3CC(C)(O)C(O)C(C)O3)C(N(C)C)C2O)[C@@H](CC=O)C[C@@H](C)[C@@H](OC2CCC(N(C)C)C(C)O2)/C=C/C=C/C[C@@H](C)OC(=O)C[C@H]1O (stereo partly specified) [SPIRAMYCIN] | 317 Å²
COc1ccc(-c2coc3cc(O)ccc3c2=O)cc1 [FORMONONETIN] | 156.8 Å²
Nc1ccc(S(=O)(=O)Nc2nccs2)cc1 [SULFATHIAZOLE] | 150.8 Å²
C[C@]12CCC(=O)C=C1CC[C@@H]1[C@@H]2[C@@H](O)C[C@@]2(C)[C@H]1CC[C@]2(O)C(=O)COC(=O)CCC(=O)O [HYDROCORTISONE HEMISUCCINATE] | 212.4 Å²
COc1cc2c(cc1OC)C(C)NCC2 (stereo unspecified) [SALSOLIDINE] | 150.9 Å²
C[C@]12C=CC(=O)C=C1CC[C@@H]1[C@@H]2C(=O)C[C@@]2(C)[C@H]1CC[C@]2(O)C(=O)CO [PREDNISONE] | 181.8 Å²
Nc1nc(=O)c2ncn(COCCO)c2[nH]1 [ACYCLOVIR] | 146.5 Å²
O=c1c(O)c(-c2ccc(O)c(O)c2)oc2c(O)c(O)cc(O)c12 [GOSSYPETIN] | 165.9 Å²
Oc1c(I)cc(Cl)c2cccnc12 [CLIOQUINOL] | 138.2 Å²
C[C@]12CC[C@H]3[C@@H](CCC4=CC(=O)CC[C@@]43C)[C@@H]1CC[C@@H]2O [TESTOSTERONE] | 170.6 Å²
C[C@]12CC[C@H]3[C@@H](CC[C@]4(O)C[C@@H](O)CC[C@]34C=O)[C@@]1(O)CC[C@@H]2C1=CC(=O)OC1 [STROPHANTHIDIN] | 196.7 Å²
CCC(C)C(=O)O[C@@H]1C[C@@]2(C)[C@H](c3ccoc3)OC(=O)CC23OC2(C)OC34[C@H](OC(=O)C(C)C)[C@@]3(O)[C@@H](OC(=O)C5(C)OC5C)[C@@]5(C)C[C@]3(O)[C@@](C)([C@H]5CC(=O)OC)C14O2 (stereo partly specified) [ENTANDROPHRAGMIN] | 259.8 Å²
NC(=O)N1c2ccccc2C=Cc2ccccc21 [CARBAMAZEPINE] | 149 Å²
COc1ccc2c(c1)OCC(Cc1ccc(O)c(OC)c1)C2=O (stereo unspecified) [DEOXYSAPPANONE B 7,3'-DIMETHYL ETHER] | 171.2 Å²
CC(=O)O[C@H]1CC[C@@]2(C)C(C[C@@H](OC(C)=O)[C@]3(C)C2CC[C@@]2(C)[C@H](c4ccoc4)OC(=O)[C@H]4O[C@]423)C1(C)C (stereo partly drawn) [3beta-ACETOXYDEOXODIHYDROGEDUNIN] | 219.2 Å²
Nc1nc(N)c2nc(-c3ccccc3)c(N)nc2n1 [TRIAMTERENE] | 155.4 Å²
c1cc2c(cc1[C@H]1OC[C@H]3[C@@H]1CO[C@H]3c1ccc3c(c1)OCO3)OCO2 [ASARININ (-)] | 171 Å²
COc1cc(O)c(C)c(O)c1 [2,6-DIHYDROXY-4-METHOXYTOLUENE] | 127.1 Å²
COc1ccc(-c2oc3cc(OC)c(OC)c(OC)c3c(=O)c2OC)cc1 [3,4',5,6,7-PENTAMETHOXYFLAVONE] | 181.9 Å²
O=c1c(O)c(-c2ccc(O)c(O)c2)oc2c(O[C@@H]3O[C@H](CO)[C@@H](O)[C@H](O)[C@H]3O)c(O)cc(O)c12 [GOSSYPIN] | 199.6 Å²
C[C@H](CCC(=O)NCC(=O)O)[C@H]1CC[C@H]2[C@@H]3[C@H](O)C[C@@H]4C[C@H](O)CC[C@]4(C)[C@H]3C[C@H](O)[C@]12C [GLYCOCHOLIC ACID] | 205.2 Å²

Now from value to compound:

collision cross section (N2) | Structure (SMILES)
138.5 Å² | CC1=CC2C(CC1=O)C(C)=CCC2C(C)C (stereo unspecified) [MUUROLLADIE-3-ONE]
165.7 Å² | N[C@@H](CCC(=O)N[C@@H](CS)C(=O)NCC(=O)O)C(=O)O [GLUTATHIONE]
201.9 Å² | CN1CCN(CC/C=C2/c3ccccc3Sc3ccc(S(=O)(=O)N(C)C)cc32)CC1 [THIOTHIXENE]
154.3 Å² | O=C(O)c1cc(-c2ccccc2)nc2ccccc12 [CINCHOPHEN]
131.2 Å² | Cc1[nH]c(C)c(Cl)c(=O)c1Cl [CLOPIDOL]
183.3 Å² | CCN1CCCC1CNC(=O)c1cc(S(N)(=O)=O)ccc1OC (stereo unspecified) [SULPIRIDE]
163.4 Å² | OC(Cn1cncn1)(Cn1cncn1)c1ccc(F)cc1F [FLUCONAZOLE]
219.1 Å² | OC1(c2ccc(Cl)c(C(F)(F)F)c2)CCN(CCCC(c2ccc(F)cc2)c2ccc(F)cc2)CC1 [PENFLURIDOL]
152.5 Å² | CC(C)C[C@H](NC(=O)[C@H](C)N)C(=O)O [ALANYL-dl-LEUCINE]
141.4 Å² | Cc1c(O)c(=O)n(-c2ccccc2)n1C [4-HYDROXYANTIPYRINE]
180.6 Å² | Cc1nc(-c2ccc(OCC(C)C)c(C#N)c2)sc1C(=O)O [FEBUXOSTAT]
181.2 Å² | COc1ccc(C(=O)CC(=O)c2ccc(C(C)(C)C)cc2)cc1 [AVOBENZONE]
180.7 Å² | Clc1ccc(C(Cn2ccnc2)OCc2ccsc2Cl)c(Cl)c1 (stereo unspecified) [TIOCONAZOLE]
159.1 Å² | Cc1noc(NS(=O)(=O)c2ccc(N)cc2)c1C [SULFISOXAZOLE]
160.4 Å² | CCOc1ccc(C(=O)c2ccc(O)c(O)c2O)cc1 [2,3,4-TRIHYDROXY-4'-ETHOXYBENZOPHENONE]
189.8 Å² | O=c1c2cc(O)c(O)cc2oc2cc(O)c([C@@H]3O[C@H](CO)[C@@H](O)[C@H](O)[C@H]3O)c(O)c12 [MANGIFERIN]
182 Å² | COc1ccc(-c2cc(=O)c3c(OC)c(OC)c(OC)c(OC)c3o2)cc1 [TANGERITIN]
234.1 Å² | COc1cc(-c2coc3cc(OCc4ccccc4)c(OC)c(O)c3c2=O)cc(OCc2ccccc2)c1OC [IRIGENIN, DIBENZYL ETHER]
169.2 Å² | OC[C@H]1O[C@@H](O[C@@H]2[C@@H](CO)O[C@](O)(CO)[C@H]2O)[C@H](O)[C@@H](O)[C@H]1O [LACTULOSE]
171.1 Å² | O=C(/C=C/C(=O)Oc1ccccc1C(=O)O)Oc1ccccc1C(=O)O [BISSALICYL FUMARATE]
179.8 Å² | CC1=C2C(O)C(=O)OC3CC4C(C)(C)C(=O)C=C[C@]4(C)C(CC1)[C@]23C (stereo partly specified) [MEROGEDUNIN]
125.4 Å² | CCOC(=O)c1ccc(O)cc1 [ETHYL PARABEN]
248.8 Å² | CCC(C)n1ncn(-c2ccc(N3CCN(c4ccc(OCC5COC(Cn6cncn6)(c6ccc(Cl)cc6Cl)O5)cc4)CC3)cc2)c1=O (stereo unspecified) [ITRACONAZOLE]
172.1 Å² | O=C1OC(c2ccc(O)cc2)(c2ccc(O)cc2)c2ccccc21 [PHENOLPHTHALEIN]
150.5 Å² | Nc1ccn([C@@H]2O[C@H](CO)[C@@H](O)[C@@H]2O)c(=O)n1 [CYTARABINE]
248.4 Å² | CC1=C(CCC(=O)O)c2cc3nc(cc4[nH]c(cc5[nH]c(cc1n2)c(C)c5C(C)O)c(C)c4C(C)O)C(C)=C3CCC(=O)O (stereo unspecified) [HAEMATOPORPHYRIN]
153 Å² | O=C(/C=C/c1ccc(O)cc1)c1ccccc1O [2',4-DIHYDROXYCHALCONE]
165.6 Å² | CCOC(=O)c1ncn2c1CN(C)C(=O)c1cc(F)ccc1-2 [FUMAZENIL]

Same assay, conditions: [M+Na]+; instrument: TW; calibrated with polyalanine and drug standards

Structure (SMILES) | collision cross section (N2) [Å²]
CC[C@H](C)C(=O)O[C@H]1CCC=C2C=C[C@H](C)[C@H](CC[C@@H]3C[C@@H](O)CC(=O)O3)[C@H]21 [MEVASTATIN] | 198.4
C[C@H](CCC(=O)NCC(=O)O)[C@H]1CC[C@H]2[C@@H]3[C@H](O)C[C@@H]4C[C@H](O)CC[C@]4(C)[C@H]3C[C@H](O)[C@]12C [GLYCOCHOLIC ACID] | 200.8

More lines, now with the values ahead:

collision cross section (N2) [Å²] | Structure (SMILES)
185.6 | C=C[C@@]1(C)CC(=O)[C@@]2(O)[C@](C)(O1)[C@@H](O)[C@@H](O)C1C(C)(C)CC[C@H](O)[C@@]12C (stereo partly specified) [DESACETYLCOLFORSIN]
227 | COc1ccc([C@@H]2CC(=O)c3c(O)cc(O[C@@H]4O[C@H](CO[C@@H]5O[C@@H](C)[C@H](O)[C@@H](O)[C@H]5O)[C@@H](O)[C@H](O)[C@H]4O)cc3O2)cc1O [HESPERIDIN]
184 | C#CCCCCCCCCCCCC(O)CC(O)COC(C)=O (stereo unspecified) [AVOCADYNE ACETATE]
195.6 | C[C@H](CCC(=O)O)[C@H]1CC[C@H]2[C@@H]3[C@H](O)C[C@@H]4C[C@H](O)CC[C@]4(C)[C@H]3C[C@H](O)[C@]12C [CHOLIC ACID]

Same assay, conditions: [M]+; instrument: TW; calibrated with polyalanine and drug standards

collision cross section (N2) [Å²] | Structure (SMILES)
144.2 | O=C1OCCN1/N=C/c1ccc([N+](=O)[O-])o1 [FURAZOLIDONE]
